Species: Rattus norvegicus
Experiment: Open TG-GATES - Regimen: Single
Format: toxicity, organism-based, Sprague-Dawley
Parameters: regimen Single, gender Male, age 6 weeks
Conditions: in vivo, po, route gavage; for gamma-GTP / ALP / ALT / AST / BUN / CRE / DBIL / GLC / IP / K / Na / PL / RALB / TBIL / TC / TG / TP / LDH / Ca: tissue Plasma; for APTT / Bas / Eos / Fbg / Hb / Ht / Lym / MCH / MCHC / MCV / Mono / Neu / PT / Plat / RBC / Ret / WBC: tissue Blood; for KIDNEY_L / KIDNEY_R / KIDNEY_TOTAL: tissue Kidney; for LIVER: tissue Liver
[1] = 300 mg/kg, 3 h, dose level Middle
[2] = 300 mg/kg, 6 h, dose level Middle
[3] = 300 mg/kg, 9 h, dose level Middle
[4] = 300 mg/kg, 24 h, dose level Middle
[5] = 1000 mg/kg, 3 h, dose level High
[6] = 1000 mg/kg, 6 h, dose level High
[7] = 1000 mg/kg, 9 h, dose level High
[8] = 1000 mg/kg, 24 h, dose level High

C[C@H](CS)C(=O)N1CCC[C@H]1C(=O)O [CAPTOPRIL]
gamma-GTP (100 mg/kg, 24 h, dose level Low): 1 IU/L
TERMINAL_BW [1]: 224.2 g
APTT [1]: 16.3 s
Bas [1]: 0%
Eos [1]: 0.8%
Fbg [1]: 204.8 mg/dL
Hb [1]: 13.2 g/dL
Ht [1]: 39.8%
Lym [1]: 83.6%
MCH [1]: 21.3 pg
MCHC [1]: 33.2%
MCV [1]: 64.1 fL
Mono [1]: 5%
Neu [1]: 10%
PT [1]: 11.6 s
Plat [1]: 117.4 x10_4/uL
RBC [1]: 620.8 x10_4/ul
Ret [1]: 6.6%
WBC [1]: 125.4 x10_2/uL
KIDNEY_L [1]: 1 g
KIDNEY_R [1]: 1 g
KIDNEY_TOTAL [1]: 2 g
LIVER [1]: 11.2 g
ALP [1]: 845.8 IU/L
ALT [1]: 33.4 IU/L
AST [1]: 61.8 IU/L
BUN [1]: 17 mg/dL
CRE [1]: 0.4 mg/dL
DBIL [1]: 0.006 mg/dL
GLC [1]: 209.4 mg/dL
IP [1]: 9.3 mg/dL
K [1]: 5 meq/L
Na [1]: 138 meq/L
PL [1]: 130 mg/dL
RALB [1]: 3.7 g/dL
TBIL [1]: 0.4 mg/dL
TC [1]: 70.8 mg/dL
TG [1]: 68.6 mg/dL
TP [1]: 5.4 g/dL
gamma-GTP [1]: 1.4 IU/L
TERMINAL_BW [2]: 221.9 g
APTT [2]: 16.4 s
Bas [2]: 0%
Eos [2]: 1.2%
Hb [2]: 12.9 g/dL
Ht [2]: 39%
Lym [2]: 80%
MCH [2]: 21 pg
MCHC [2]: 33%
MCV [2]: 63.5 fL
Mono [2]: 6.6%
Neu [2]: 12.2%
PT [2]: 12.1 s
Plat [2]: 116.7 x10_4/uL
RBC [2]: 615 x10_4/ul
Ret [2]: 8.2%
WBC [2]: 113.8 x10_2/uL
KIDNEY_L [2]: 1 g
KIDNEY_R [2]: 1 g
KIDNEY_TOTAL [2]: 2 g
ALP [2]: 734.8 IU/L
ALT [2]: 32 IU/L
AST [2]: 55 IU/L
BUN [2]: 21.8 mg/dL
CRE [2]: 0.6 mg/dL
DBIL [2]: 0.026 mg/dL
GLC [2]: 197.4 mg/dL
K [2]: 4.8 meq/L
LDH [2]: 92.4 IU/L
Na [2]: 139 meq/L
PL [2]: 133.6 mg/dL
RALB [2]: 3.5 g/dL
TBIL [2]: 0.5 mg/dL
TC [2]: 73.6 mg/dL
TG [2]: 50.4 mg/dL
TP [2]: 5.1 g/dL
gamma-GTP [2]: 2 IU/L
TERMINAL_BW [3]: 222.6 g
APTT [3]: 15.9 s
Bas [3]: 0%
Eos [3]: 0.8%
Fbg [3]: 204 mg/dL
Hb [3]: 13 g/dL
Ht [3]: 39.5%
Lym [3]: 79.2%
MCH [3]: 21.4 pg
MCHC [3]: 32.8%
MCV [3]: 65.4 fL
Mono [3]: 4.8%
Neu [3]: 15.2%
PT [3]: 12.3 s
RBC [3]: 604.2 x10_4/ul
Ret [3]: 8.6%
KIDNEY_L [3]: 1 g
KIDNEY_R [3]: 1 g
KIDNEY_TOTAL [3]: 2 g
LIVER [3]: 9.4 g
ALP [3]: 667 IU/L
ALT [3]: 35.4 IU/L
AST [3]: 55.8 IU/L
BUN [3]: 16.8 mg/dL
CRE [3]: 0.4 mg/dL
DBIL [3]: 0.078 mg/dL
GLC [3]: 208.6 mg/dL
K [3]: 5 meq/L
LDH [3]: 72.6 IU/L
Na [3]: 139.6 meq/L
PL [3]: 139.6 mg/dL
RALB [3]: 3.7 g/dL
TBIL [3]: 0.3 mg/dL
TC [3]: 78.8 mg/dL
TG [3]: 49 mg/dL
TP [3]: 5.3 g/dL
gamma-GTP [3]: 2 IU/L
TERMINAL_BW [4]: 235.1 g
APTT [4]: 16.5 s
Bas [4]: 0%
Eos [4]: 0.8%
Hb [4]: 13.2 g/dL
Ht [4]: 39.8%
Lym [4]: 83.4%
MCH [4]: 21.5 pg
MCHC [4]: 33.2%
MCV [4]: 64.8 fL
Mono [4]: 5.2%
Neu [4]: 10%
PT [4]: 11.4 s
Plat [4]: 118.6 x10_4/uL
RBC [4]: 613.8 x10_4/ul
Ret [4]: 8.6%
KIDNEY_L [4]: 1 g
KIDNEY_R [4]: 1 g
KIDNEY_TOTAL [4]: 2.1 g
LIVER [4]: 11.6 g
ALT [4]: 37.6 IU/L
AST [4]: 64.8 IU/L
BUN [4]: 17.4 mg/dL
CRE [4]: 0.6 mg/dL
Ca [4]: 11.3 mg/dL
DBIL [4]: 0.02 mg/dL
GLC [4]: 189.6 mg/dL
IP [4]: 8.5 mg/dL
K [4]: 4.9 meq/L
LDH [4]: 115.6 IU/L
Na [4]: 138.8 meq/L
PL [4]: 150.6 mg/dL
RALB [4]: 4.1 g/dL
TBIL [4]: 0.3 mg/dL
TC [4]: 79.2 mg/dL
TG [4]: 86 mg/dL
TP [4]: 5.9 g/dL
gamma-GTP [4]: 0.6 IU/L
TERMINAL_BW [5]: 222.3 g
APTT [5]: 16 s
Bas [5]: 0%
Eos [5]: 1%
Fbg [5]: 204.8 mg/dL
Hb [5]: 13.6 g/dL
Ht [5]: 40.9%
Lym [5]: 76.8%
MCH [5]: 21.8 pg
MCHC [5]: 33.1%
MCV [5]: 65.9 fL
Mono [5]: 5.6%
Neu [5]: 16.4%
PT [5]: 12.1 s
Plat [5]: 118.1 x10_4/uL
RBC [5]: 621.6 x10_4/ul
Ret [5]: 8.4%
KIDNEY_L [5]: 1 g
KIDNEY_R [5]: 1 g
KIDNEY_TOTAL [5]: 2.1 g
ALP [5]: 661.2 IU/L
ALT [5]: 37 IU/L
AST [5]: 61 IU/L
BUN [5]: 17.4 mg/dL
CRE [5]: 0.5 mg/dL
DBIL [5]: 0.006 mg/dL
GLC [5]: 213 mg/dL
IP [5]: 9.8 mg/dL
K [5]: 5 meq/L
Na [5]: 137.8 meq/L
PL [5]: 133.6 mg/dL
RALB [5]: 3.5 g/dL
TBIL [5]: 0.5 mg/dL
TC [5]: 79.4 mg/dL
TG [5]: 53.8 mg/dL
TP [5]: 5.5 g/dL
gamma-GTP [5]: 1.4 IU/L
TERMINAL_BW [6]: 215.6 g
APTT [6]: 16.5 s
Bas [6]: 0%
Eos [6]: 1%
Fbg [6]: 205.6 mg/dL
Hb [6]: 13.4 g/dL
Ht [6]: 40.4%
Lym [6]: 79.6%
MCH [6]: 21.1 pg
MCHC [6]: 33.1%
MCV [6]: 63.9 fL
Mono [6]: 5.2%
Neu [6]: 14%
PT [6]: 12.6 s
RBC [6]: 632.8 x10_4/ul
Ret [6]: 8.2%
WBC [6]: 110.9 x10_2/uL
KIDNEY_L [6]: 1 g
KIDNEY_R [6]: 1 g
KIDNEY_TOTAL [6]: 2 g
LIVER [6]: 9.6 g
ALP [6]: 736.6 IU/L
ALT [6]: 32.8 IU/L
AST [6]: 57.6 IU/L
BUN [6]: 21.2 mg/dL
CRE [6]: 0.6 mg/dL
DBIL [6]: 0.02 mg/dL
GLC [6]: 211.4 mg/dL
IP [6]: 9.8 mg/dL
K [6]: 4.7 meq/L
LDH [6]: 110.4 IU/L
Na [6]: 139.6 meq/L
PL [6]: 112.8 mg/dL
RALB [6]: 3.6 g/dL
TBIL [6]: 0.5 mg/dL
TC [6]: 62.6 mg/dL
TG [6]: 48.4 mg/dL
TP [6]: 5.4 g/dL
gamma-GTP [6]: 1.6 IU/L
TERMINAL_BW [7]: 220.7 g
APTT [7]: 16.6 s
Bas [7]: 0%
Eos [7]: 1%
Fbg [7]: 201.2 mg/dL
Hb [7]: 12.7 g/dL
Ht [7]: 38.9%
Lym [7]: 77.6%
MCH [7]: 20.8 pg
MCHC [7]: 32.7%
MCV [7]: 63.4 fL
Mono [7]: 4.8%
Neu [7]: 16.6%
PT [7]: 12.4 s
Plat [7]: 113.6 x10_4/uL
RBC [7]: 613.4 x10_4/ul
Ret [7]: 8.7%
KIDNEY_L [7]: 1 g
KIDNEY_R [7]: 1 g
KIDNEY_TOTAL [7]: 2 g
LIVER [7]: 9.1 g
ALP [7]: 691.6 IU/L
ALT [7]: 36 IU/L
AST [7]: 59.4 IU/L
BUN [7]: 24.4 mg/dL
CRE [7]: 0.4 mg/dL
DBIL [7]: 0.08 mg/dL
GLC [7]: 192.2 mg/dL
IP [7]: 11 mg/dL
K [7]: 5.3 meq/L
LDH [7]: 76 IU/L
Na [7]: 140 meq/L
PL [7]: 118.2 mg/dL
RALB [7]: 3.4 g/dL
TBIL [7]: 0.5 mg/dL
TC [7]: 68.4 mg/dL
TG [7]: 27.4 mg/dL
TP [7]: 5.1 g/dL
gamma-GTP [7]: 1.8 IU/L
TERMINAL_BW [8]: 237.2 g
APTT [8]: 16.4 s
Bas [8]: 0%
Eos [8]: 1%
Hb [8]: 12.8 g/dL
Ht [8]: 38.5%
Lym [8]: 79%
MCH [8]: 21.7 pg
MCHC [8]: 33.2%
MCV [8]: 65.3 fL
Mono [8]: 5.2%
Neu [8]: 14.8%
PT [8]: 11.3 s
Plat [8]: 110.3 x10_4/uL
RBC [8]: 589.4 x10_4/ul
Ret [8]: 8.4%
WBC [8]: 95.8 x10_2/uL
KIDNEY_L [8]: 1.1 g
KIDNEY_R [8]: 1.1 g
KIDNEY_TOTAL [8]: 2.1 g
LIVER [8]: 11.8 g
ALP [8]: 971.2 IU/L
ALT [8]: 39.8 IU/L
AST [8]: 66.4 IU/L
BUN [8]: 16.8 mg/dL
CRE [8]: 0.6 mg/dL
Ca [8]: 11.1 mg/dL
DBIL [8]: 0.058 mg/dL
GLC [8]: 200.4 mg/dL
IP [8]: 8.6 mg/dL
K [8]: 4.5 meq/L
LDH [8]: 100.4 IU/L
Na [8]: 137.8 meq/L
PL [8]: 142 mg/dL
RALB [8]: 3.9 g/dL
TBIL [8]: 0.3 mg/dL
TC [8]: 81.4 mg/dL
TP [8]: 5.7 g/dL
gamma-GTP [8]: 1.2 IU/L
